Each compound was assayed against T1, HIF-2α (Homo sapiens, UniProt Q99814) (assay: HIF-2α luciferase reporter assay in HIF-Luc-786-O cells). Conditions: Table 3, 20 hours incubation.
T1 construct: host or cells: 786-O cells stably transduced with Cignal Lenti HIF Luc Reporter (only the reporter was introduced, not HIF-2α)
Format: cell-based
Description: Generation of HIF-2α Luciferase 786-O Cell Line:
Stable cell lines were generated by transducing 786-O cells (ATCC, CRL-1932) with Cignal Lenti HIF Luc Reporter lentivirus (CLS-007 L, Qiagen) according to the manufacturer's guidelines. In brief, 0.3×10^6 786-0 cells were transduced with lentivirus at a Multiplicity of Infection (MOI) of 25 for 24 hours. After transduction, cells were replenished with fresh RPMI 1640 Medium (Cat. No. 11875085, Thermo Fisher,) supplemented with 10% FBS (Cat. No. A3160502, Gibco), 2 mM GlutaMax (Cat. No. 35050-061, Invitrogen) and 100 units of penicillin and 100 μg of streptomycin/mL (Cat. No 15070063, Thermo Fisher) for another 24 hours. Antibiotic selection was performed in cell media containing 4 μg/mL of Puromycin. After 7 days of antibiotic selection, stable pools of surviving cells were expanded and used in a luciferase reporter assay.
HIF-2α Luciferase Reporter Assay:
On day one, 20 uL of HIF-Luc-786-0 cells in OptiMem (Cat. No. 31985088, Thermo Fisher) were seeded into each well of a 384 well white opaque plate (Corning 3570) and incubated at 37° C. and 5% CO2. Twenty microliters of 2× test compounds in OptiMem were added to cells after 4 hours of incubation. Final assay conditions comprised 20,000 cells per well in 1% DMSO with test compound concentrations ranging from 50 uM to 0 uM. After 20 hours incubation at 37° C. and 5% CO2, luciferase activity was determined using ONE-Glo Luciferase Assay Reagent (E6110, Promega) following the manufacture's recommended procedure. Briefly, 40 uL of ONE-Glo luciferase reagents were added to each well and luciferase signals were measured using an Envision 2102 Multilabel Reader. Percentage maximum activity in each test well was calculated based on DMSO (maximum activity) and no cell control wells (baseline activity). The IC50 values of the test compounds were determined from compound dose response curves fitted using a standard four parameter fit equation.

T1 sequence (Q99814 whole entry): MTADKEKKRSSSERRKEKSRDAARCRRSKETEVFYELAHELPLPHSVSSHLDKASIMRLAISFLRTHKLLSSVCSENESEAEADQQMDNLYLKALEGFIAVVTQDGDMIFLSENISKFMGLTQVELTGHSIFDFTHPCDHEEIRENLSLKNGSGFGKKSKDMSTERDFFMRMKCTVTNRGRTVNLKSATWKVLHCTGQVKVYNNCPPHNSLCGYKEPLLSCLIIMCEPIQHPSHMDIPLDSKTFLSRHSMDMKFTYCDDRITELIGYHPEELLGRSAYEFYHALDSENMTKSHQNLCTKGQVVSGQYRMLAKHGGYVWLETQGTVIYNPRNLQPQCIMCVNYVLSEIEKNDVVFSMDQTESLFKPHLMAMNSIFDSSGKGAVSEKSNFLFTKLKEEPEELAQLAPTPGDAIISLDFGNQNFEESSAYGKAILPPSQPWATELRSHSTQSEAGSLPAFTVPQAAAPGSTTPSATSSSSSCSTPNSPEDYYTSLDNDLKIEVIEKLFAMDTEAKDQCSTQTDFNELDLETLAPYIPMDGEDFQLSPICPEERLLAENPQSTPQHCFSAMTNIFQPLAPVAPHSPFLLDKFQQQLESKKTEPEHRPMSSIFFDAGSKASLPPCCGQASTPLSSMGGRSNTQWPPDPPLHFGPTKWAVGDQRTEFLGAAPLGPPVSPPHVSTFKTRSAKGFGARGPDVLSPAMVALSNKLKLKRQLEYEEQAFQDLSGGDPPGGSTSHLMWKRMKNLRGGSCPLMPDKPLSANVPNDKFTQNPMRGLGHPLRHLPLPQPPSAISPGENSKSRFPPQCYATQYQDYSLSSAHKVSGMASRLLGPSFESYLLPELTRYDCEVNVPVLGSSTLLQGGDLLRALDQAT

IC50 | Compound
< 100 nM | Cn1nncc1-c1ccc([C@H]2CC[C@H](F)c3cc(F)cc(C#N)c32)c2c1[C@H](O)[C@H](F)C2 [Example 175, (5S,8R)-3,5-difluoro-8-[(1S,2R)-2-fluoro-1-hydroxy-7-(3-methyltriazol-4-yl)-2,3-dihydro-1H-inden-4-yl]-5,6,7,8-tetrahydronaphthalene-1-carbonitrile]
< 100 nM | CS(=O)(=O)c1c(F)cc([C@H]2CC[C@H](F)c3cc(F)cc(C#N)c32)c2c1[C@H](O)[C@H](F)C2 [Example 211, (5S,8R)-8-[(1S,2R)-2,6-Difluoro-1-hydroxy-7-methylsulfonyl-2,3-dihydro-1H-inden-4-yl]-3,5-difluoro-5,6,7,8-tetrahydronaphthalene-1-carbonitrile]
100 to 1000 nM | Cc1ncccc1-c1ncc([C@H]2CC[C@H](F)c3cc(F)cc(C#N)c32)c2c1[C@H](O)[C@H](F)C2 [Example 227, (5S,8S)-3,5-difluoro-8-[(6R,7S)-6-fluoro-7-hydroxy-1-(2-methylpyridin-3-yl)-5H16H17H-cyclopenta[c]pyridin-4-yl]-5,6,7,8-tetrahydronaphthalene-1-carbonitrile]
< 100 nM | N#Cc1cc(F)cc2c1[C@@H](c1ccc(-c3c(N)cccc3F)c3c1CC(F)(F)[C@H]3O)CC[C@@H]2F [Example 196, (5S,8R)-8-[(1S)-7-(2-amino-6-fluorophenyl)-2,2-difluoro-1-hydroxy-1,3-dihydroinden-4-yl]-3,5-difluoro-5,6,7,8-tetrahydronaphthalene-1-carbonitrile]
100 to 1000 nM | Cc1ncc(-c2ccc([C@H]3CC[C@H](F)c4cc(F)cc(C#N)c43)c3c2[C@H](O)C(F)(F)C3)o1 [Example 148, (5S,8R)-8-[(1S)-2,2-difluoro-1-hydroxy-7-(2-methyl-1,3-oxazol-5-yl)-1,3-dihydroinden-4-yl]-3,5-difluoro-5,6,7,8-tetrahydronaphthalene-1-carbonitrile]
< 100 nM | Cc1c(C#N)cccc1-c1ccc([C@H]2CC[C@H](F)c3cc(F)cc(C#N)c32)c2c1[C@H](O)C(F)(F)C2 [Example 155, (5S,8R)-8-[(1S)-7-(3-cyano-2-methylphenyl)-2,2-difluoro-1-hydroxy-1,3-dihydroinden-4-yl]-3,5-difluoro-5,6,7,8-tetrahydronaphthalene-1-carbonitrile]
< 100 nM | Cc1ncc(-c2ccc([C@H]3C[C@H](F)[C@H](F)c4cc(F)cc(C#N)c43)c3c2[C@H](O)C(F)(F)C3)c(N)n1 [Example 221, (5R,6S,8R)-8-[(1S)-7-(4-amino-2-methylpyrimidin-5-yl)-2,2-difluoro-1-hydroxy-2,3-dihydro-1H-inden-4-yl]-3,5,6-trifluoro-5,6,7,8-tetrahydronaphthalene-1-carbonitrile]
< 100 nM | N#Cc1cc(F)cc2c1[C@@H](c1ccc(-c3cccc4ncsc34)c3c1CC(F)(F)[C@H]3O)CC[C@@H]2F [Example 189, (5S,8R)-8-[(1S)-7-(1,3-benzothiazol-7-yl)-2,2-difluoro-1-hydroxy-1,3-dihydroinden-4-yl]-3,5-difluoro-5,6,7,8-tetrahydronaphthalene-1-carbonitrile]
100 to 1000 nM | N#Cc1cc(F)cc2c1[C@@H](c1ccc(-c3cccn4ccnc34)c3c1CC(F)(F)[C@H]3O)CC[C@@H]2F [Example 245, (5S,8R)-8-[(1S)-2,2-difluoro-1-hydroxy-7-{imidazo[1,2-a]pyridin-8-yl}-2,3-dihydro-1H-inden-4-yl]-3,5-difluoro-5,6,7,8-tetrahydronaphthalene-1-carbonitrile]
< 100 nM | Cn1cc(-c2c(F)cc([C@H]3CC[C@H](F)c4cc(F)cc(C#N)c43)c3c2[C@H](O)C(F)(F)C3)nn1 [Example 202, (5S,8R)-3,5-Difluoro-8-[(1S)-2,2,6-trifluoro-1-hydroxy-7-(1-methyltriazol-4-yl)-1,3-dihydroinden-4-yl]-5,6,7,8-tetrahydronaphthalene-1-carbonitrile]
< 100 nM | N#Cc1cc(F)cc2c1[C@@H](c1ccc(-c3ccc(F)cc3N)c3c1CC(F)(F)[C@H]3O)CC[C@@H]2F [Example 194, (5S,8R)-8-[(1S)-7-(2-amino-4-fluorophenyl)-2,2-difluoro-1-hydroxy-1,3-dihydroinden-4-yl]-3,5-difluoro-5,6,7,8-tetrahydronaphthalene-1-carbonitrile]
< 100 nM | N#Cc1cc(F)cc2c1[C@@H](c1ccc(-c3cnc(C(N)=O)s3)c3c1CC(F)(F)[C@H]3O)CC[C@@H]2F [Example 180, 5-[(3S)-7-[(1R,4S)-8-cyano-4,6-difluoro-1,2,3,4-tetrahydronaphthalen-1-yl]-2,2-difluoro-3-hydroxy-1,3-dihydroinden-4-yl]-1,3-thiazole-2-carboxamide]
< 100 nM | Cc1nc(C#N)ncc1-c1c(F)cc([C@H]2CC[C@H](F)c3cc(F)cc(C#N)c32)c2c1[C@H](O)C(F)(F)C2 [Example 206, 5-[(3S)-7-[(1R,4S)-8-cyano-4,6-difluoro-1,2,3,4-tetrahydronaphthalen-1-yl]-2,2,5-trifluoro-3-hydroxy-2,3-dihydro-1H-inden-4-yl]-4-methylpyrimidine-2-carbonitrile]
100 to 1000 nM | Cc1[nH]c(=O)ccc1-c1ccc([C@H]2CC[C@H](F)c3cc(F)cc(C#N)c32)c2c1[C@H](O)C(F)(F)C2 [Example 161, (5S,8R)-8-[(1S)-2,2-difluoro-1-hydroxy-7-(2-methyl-6-oxo-1H-pyridin-3-yl)-1,3-dihydroinden-4-yl]-3,5-difluoro-5,6,7,8-tetrahydronaphthalene-1-carbonitrile]
< 100 nM | Cc1c(-c2c(F)cc([C@H]3C[C@H](F)[C@H](F)c4cc(F)cc(C#N)c43)c3c2[C@H](O)C(F)(F)C3)cnn1C [Example 209, (5R,6S)-8-[(1S)-7-(1,5-dimethyl-1H-pyrazol-4-yl)-2,2,6-trifluoro-1-hydroxy-2,3-dihydro-1H-inden-4-yl]-3,5,6-trifluoro-5,6,7,8-tetrahydronaphthalene-1-carbonitrile]
100 to 1000 nM | CN(C)C(=O)c1ccc([C@H]2CC[C@H](F)c3cc(F)cc(C#N)c32)c2c1[C@H](O)C(F)(F)C2 [Example 224, (3S)-7-[(1R,4S)-8-cyano-4,6-difluoro-1,2,3,4-tetrahydronaphthalen-1-yl]-2,2-difluoro-3-hydroxy-N,N-dimethyl-1,3-dihydroindene-4-carboxamide]
< 100 nM | Cc1nc(N)cnc1-c1ccc([C@H]2CC[C@H](F)c3cc(F)cc(C#N)c32)c2c1[C@H](O)C(F)(F)C2 [Example 179, (5S,8R)-8-[(1S)-7-(5-amino-3-methylpyrazin-2-yl)-2,2-difluoro-1-hydroxy-1,3-dihydroinden-4-yl]-3,5-difluoro-5,6,7,8-tetrahydronaphthalene-1-carbonitrile]
< 100 nM | N#Cc1cc(F)cc2c1[C@@H](c1ccc(-c3cccc4ncoc34)c3c1CC(F)(F)[C@H]3O)CC[C@@H]2F [Example 228, (5S,8R)-8-[(1S)-7-(1,3-benzoxazol-7-yl)-2,2-difluoro-1-hydroxy-1,3-dihydroinden-4-yl]-3,5-difluoro-5,6,7,8-tetrahydronaphthalene-1-carbonitrile]
< 100 nM | CS(=O)(=O)c1ccc([C@H]2CC[C@H](F)c3cc(F)cc(C#N)c32)c2c1[C@H](O)[C@@](F)(C#N)C2 [Example 247, (5S,8R)-8-[(1S,2S)-2-cyano-2-fluoro-1-hydroxy-7-methylsulfonyl-1,3-dihydroinden-4-yl]-3,5-difluoro-5,6,7,8-tetrahydronaphthalene-1-carbonitrile]
100 to 1000 nM | CS(=O)(=O)c1c(C#N)cc([C@H]2CC[C@H](F)c3cc(F)cc(C#N)c32)c2c1[C@H](O)[C@H](F)C2 [Example 214, (5S,8R)-8-[(1S,2R)-6-Cyano-2-fluoro-1-hydroxy-7-methylsulfonyl-2,3-dihydro-1H-inden-4-yl]-3,5-difluoro-5,6,7,8-tetrahydronaphthalene-1-carbonitrile]
< 100 nM | Cc1nc(C)c(-c2ccc([C@H]3CC[C@H](F)c4cc(F)cc(C#N)c43)c3c2[C@H](O)C(F)(F)C3)s1 [Example 193, (5S,8R)-8-[(1S)-7-(2,4-dimethyl-1,3-thiazol-5-yl)-2,2-difluoro-1-hydroxy-1,3-dihydroinden-4-yl]-3,5-difluoro-5,6,7,8-tetrahydronaphthalene-1-carbonitrile]
< 100 nM | N#Cc1cc(F)cc2c1[C@@H](c1ccc(-c3cncnc3N)c3c1CC(F)(F)[C@H]3O)CC[C@@H]2F [Example 177, (5S,8R)-8-[(1S)-7-(4-aminopyrimidin-5-yl)-2,2-difluoro-1-hydroxy-1,3-dihydroinden-4-yl]-3,5-difluoro-5,6,7,8-tetrahydronaphthalene-1-carbonitrile]

— US11787762B2, “Tetralin and tetrahydroquinoline compounds as inhibitors of HIF-2alpha” (ARCUS BIOSCIENCES, INC., priority 2020, dated 2023)
